This is an account of results in the supplement of paper PMC11061612.

Test [1] has as its system NCI-H1703 (Squamous Cell Lung Carcinoma). Put plainly: combination Emax (second highest fraction inhibited in the dose matrix, 72 h); higher = more inhibition; extreme values may be limits of the assay. The procedure, abridged:
(§1)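 Bliss excess equals the observed combination effect minus the expected value EA + EB − EA·EB, where EA and EB are the effects of each agent alone. Combination Emax is the second-highest inhibition within the matrix. Inhibition was scaled from CellTiter-Glo 2.0 luminescence, with 0 set by vehicle wells and 1 by blank wells, after 72 hours of two-drug dosing of cells plated in 1536-well plates.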

In test [2] the test system is LU-165 (Small Cell Lung Carcinoma). The description is as above. The procedure, abridged: as §1
The subject of test [3] is NCI-H2087 (Lung Adenocarcinoma). Described as above. The procedure, abridged: as §1
Test [4] has as its system HCC1395 (Breast Carcinoma). The test is described as above. The gist of the method:
as §1

In a further test the test system is PEO1 (Ovarian Carcinoma). Put plainly: Bliss excess, mean over the matrix (fraction); higher = more synergy. The procedure, abridged:
as §1

Test [5] relates to JHU-022 (Oral Cavity Carcinoma). The test is described as above. The gist of the method:
as §1

Test [6] deals with NCI-H1703 (Squamous Cell Lung Carcinoma). Described as above. The procedure, abridged: as §1
In test [7] the test system is MHH-ES-1 (Ewing's Sarcoma). The test is described as above. The gist of the method:
as §1

The test system of test [8] is NCI-H441 (Lung Adenocarcinoma). Described as above. The procedure, abridged:
as §1

The next test has as its system EW-7 (Ewing's Sarcoma). The test is described as above. The gist of the method: as §1
The subject of another test is WM1552C (Melanoma). The description is as above. The gist of the method:
as §1

For a further test, the system named is NB13 (Neuroblastoma). The description is as above. The gist of the method:
as §1

Turning to `C[C@@H](Nc1cc(F)cc(F)c1)c1cc(C(=O)N(C)C)cc2c(=O)cc(N3CCOCC3)oc12` [AZD8186] + CC(=O)c1c(C)c2cnc(Nc3ccc(N4CCNCC4)cn3)nc2n(C2CCCC2)c1=O [Palbociclib] (first compound max 10 µM, 7x7, partner max 10 µM), the “combination Emax” value in [1] was 0.643; in test [2] it was 0.31; in test [3], 0.24; in test [4] it was 0.382. In addition, the Bliss excess in the test on PEO1 (Ovarian Carcinoma) is -0.026; in test [5], -0.0376; in [6], 0.0093; in test [7], 0.108; in test [8] it was 0.0155; with EW-7 (Ewing's Sarcoma) it was 0.045. In the test on WM1552C (Melanoma), the Bliss excess was -0.0163.

Turning to `C[C@@H](Oc1cc(-c2cnn(C3CCNCC3)c2)cnc1N)c1c(Cl)ccc(F)c1Cl` [Crizotinib] + CC1=C(C(=CC=C1)Cl)NC(=O)C2=CN=C(S2)NC3=CC(=NC(=N3)C)N4CCN(CC4)CCO [Dasatinib] (first compound max 10 µM, 7x7, partner max 2 µM), the “combination Emax” value in test [1] worked out at 0.799; in [2], 0.469; in [3] it was 0.39; in [4], 0.88. In addition, the Bliss excess with PEO1 (Ovarian Carcinoma) was -0.0226; in [5] it was -0.0186; in [6], -0.0736; in [7], -0.0279; in [8] it was 0.0104; with EW-7 (Ewing's Sarcoma), -0.0072. For the same compound, the results for the Bliss excess in the test on NB13 (Neuroblastoma) and with WM1552C (Melanoma) were -0.06 and 0.0392, respectively.

`C[C@@H](Oc1cc(-c2cnn(C3CCNCC3)c2)cnc1N)c1c(Cl)ccc(F)c1Cl` [Crizotinib] + Cn1cnc2c(F)c(Nc3ccc(Br)cc3Cl)c(C(=O)NOCCO)cc21 [Selumetinib] (first compound max 10 µM, 7x7, partner max 10 µM): the “combination Emax” value in test [1] is 0.535; in test [2], 0.279; in [3], 0.587; in test [4] it was 0.491. Besides, the Bliss excess with PEO1 (Ovarian Carcinoma) was -0.0013; in test [5] it was -0.0115; in test [6] it was -0.0569; in test [7], -0.0236; in test [8], 0.0148; in the test on EW-7 (Ewing's Sarcoma), -0.0101. Besides, the Bliss excess in the test on NB13 (Neuroblastoma) is -0.104; in the test with WM1552C (Melanoma) it was -0.0338.

For `CS(=O)(=O)CCNCc1ccc(-c2ccc3ncnc(Nc4ccc(OCc5cccc(F)c5)c(Cl)c4)c3c2)o1` [Lapatinib] + Cn1cnc2c(F)c(Nc3ccc(Br)cc3Cl)c(C(=O)NOCCO)cc21 [Selumetinib] (first compound max 10 µM, 7x7, partner max 10 µM), the “combination Emax” value in [1] was found to be 0.482; in [2], 0.24; in test [3] it was 0.575; in [4] it was 0.846. For the same compound, the Bliss excess in the test on PEO1 (Ovarian Carcinoma) is -0.0453; in test [5], -0.0636; in test [6] it was -0.0179; in [7] it was 0.0015; in test [8], -0.0353; in the test on EW-7 (Ewing's Sarcoma), 0.0166. Besides, the Bliss excess with NB13 (Neuroblastoma) was -0.0311; in the test with WM1552C (Melanoma) it was -0.0077.

In the case of `O=C(c1cc(Cc2n[nH]c(=O)c3ccccc23)ccc1F)N1CCN(C(=O)C2CC2)CC1` [Olaparib] + CC1(C)CCC(CN2CCN(c3ccc(C(=O)NS(=O)(=O)c4ccc(NCC5CCOCC5)c([N+](=O)[O-])c4)c(Oc4cnc5[nH]ccc5c4)c3)CC2)=C(c2ccc(Cl)cc2)C1 [Venetoclax] (first compound max 10 µM, 7x7, partner max 1 µM), the “combination Emax” value in test [1] turned out to be 0.18; in [2], 0.207; in test [3] it was 0.176; in test [4], 0.242. Also, the Bliss excess with PEO1 (Ovarian Carcinoma) was -0.0786; in test [5], -0.0455; in test [6] it was -0.0065; in test [7], 0.0283; in [8], -0.0407; in the test with EW-7 (Ewing's Sarcoma) it was 0.0125. Further, the Bliss excess in the test with WM1552C (Melanoma) was -0.0325.

For the compound `O=C(c1cc(Cc2n[nH]c(=O)c3ccccc23)ccc1F)N1CCN(C(=O)C2CC2)CC1` [Olaparib] + CN(CC[C@H](CSC1=CC=CC=C1)NC2=C(C=C(C=C2)S(=O)(=O)NC(=O)C3=CC=C(C=C3)N4CCC(CC4)[C@H](C5=CC=CC=C5C6=CC=C(C=C6)Cl)O)S(=O)(=O)C(F)(F)F)CCO [AZD4320] (first compound max 10 µM, 7x7, partner max 1 µM), the “combination Emax” value was determined as 0.19 in test [1], 0.473 in [2], 0.413 in test [3] and 0.407 in [4]. The Bliss excess was -0.083 with PEO1 (Ovarian Carcinoma); -0.0411 in test [5]; -0.0311 in test [6]; 0.0657 in [7]; -0.0587 in test [8]; 0.129 in the test on EW-7 (Ewing's Sarcoma). The Bliss excess in the test with WM1552C (Melanoma) was 0.0005.

As for `O=C(c1cc(Cc2n[nH]c(=O)c3ccccc23)ccc1F)N1CCN(C(=O)C2CC2)CC1` [Olaparib] + COc1nnc2ccc(N3CCC(c4ccc(OCCN5CCN(C)C(=O)[C@H]5C)cc4)CC3)nn12 [AZD5153] (first compound max 10 µM, 7x7, partner max 1 µM), the “combination Emax” value in test [1] turned out to be 0.571; in test [2], 0.373; in test [3], 0.39; in test [4], 0.426. Further, the Bliss excess was -0.0367 in the test with PEO1 (Ovarian Carcinoma); -0.0676 in [5]; -0.0244 in test [6]; 0.0286 in test [7]; -0.0779 in test [8]; 0.0362 in the test on EW-7 (Ewing's Sarcoma). Besides, the Bliss excess with WM1552C (Melanoma) is -0.0553.

In the case of `O=C(c1cc(Cc2n[nH]c(=O)c3ccccc23)ccc1F)N1CCN(C(=O)C2CC2)CC1` [Olaparib] + Cc1c2c(nn1C)CSCc1cc(n(C)n1)CSc1cc(c3ccccc3c1)OCCCc1c(C(=O)O)n(C)c3c-2c(Cl)ccc13 [AZD5991] (first compound max 10 µM, 7x7, partner max 1 µM), the “combination Emax” value was 0.859 in [1], 0.141 in test [2], 0.13 in test [3] and 0.616 in test [4]. Further, the Bliss excess in the test with PEO1 (Ovarian Carcinoma) is -0.069; in [5] it was -0.052; in test [6], -0.0244; in [7], 0.0108; in test [8], -0.054; in the test with EW-7 (Ewing's Sarcoma), 0.015. Besides, the Bliss excess in the test on WM1552C (Melanoma) turned out to be 0.0329.

Regarding `Cc1nc(-c2cn3c(n2)-c2ccc(-c4cnn(C(C)(C)C(N)=O)c4)cc2OCC3)n(C(C)C)n1` [Taselisib] + O=C(Nc1ccc2[nH]nc(-c3ccncc3)c2c1)[C@@H]1CCN(CC(=O)N2CCN(c3ccc(-c4ncccn4)cc3)CC2)C1 [SCH772984] (first compound max 10 µM, 7x7, partner max 5 µM), the “combination Emax” value came out at 0.722 in [1], 0.475 in [2], 0.71 in test [3] and 0.606 in test [4]. In addition, the Bliss excess with PEO1 (Ovarian Carcinoma) was 0.0874; in test [5], -0.0001; in [6] it was -0.0292; in test [7], 0.102; in [8] it was 0.0123; with EW-7 (Ewing's Sarcoma) it was 0.0128. Also, the Bliss excess with NB13 (Neuroblastoma) worked out at 0.0664; in the test on WM1552C (Melanoma) it was 0.0205.
